The target of series [1] is T1, Cytochrome P450 2B6 (Homo sapiens, UniProt P20813).
T1 sequence (P20813 whole entry): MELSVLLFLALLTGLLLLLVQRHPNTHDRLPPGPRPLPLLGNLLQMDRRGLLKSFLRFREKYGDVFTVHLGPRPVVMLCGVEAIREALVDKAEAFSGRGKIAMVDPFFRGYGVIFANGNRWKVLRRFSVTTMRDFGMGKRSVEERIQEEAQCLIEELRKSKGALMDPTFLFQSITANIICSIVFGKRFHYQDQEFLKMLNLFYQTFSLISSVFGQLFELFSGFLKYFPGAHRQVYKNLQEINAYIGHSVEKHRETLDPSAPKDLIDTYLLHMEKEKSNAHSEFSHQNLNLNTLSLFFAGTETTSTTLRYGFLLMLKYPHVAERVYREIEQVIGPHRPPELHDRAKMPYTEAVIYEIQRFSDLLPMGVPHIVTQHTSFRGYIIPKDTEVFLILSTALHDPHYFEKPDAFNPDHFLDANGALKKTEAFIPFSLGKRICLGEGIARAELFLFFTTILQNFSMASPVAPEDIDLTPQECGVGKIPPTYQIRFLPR
The series can be described thus: Activity of human CYP2B6 assessed as enzyme-mediated compound formation treated with 10 uM ticlopidine for 60 mins by HPLC-MS analysis in presence of NADPH. The format is ADME. As to conditions: 1 h.

The target of series [2] is T2, Cytochrome P450 2B4 (Oryctolagus cuniculus, UniProt P00178).
T2 sequence (P00178 whole entry): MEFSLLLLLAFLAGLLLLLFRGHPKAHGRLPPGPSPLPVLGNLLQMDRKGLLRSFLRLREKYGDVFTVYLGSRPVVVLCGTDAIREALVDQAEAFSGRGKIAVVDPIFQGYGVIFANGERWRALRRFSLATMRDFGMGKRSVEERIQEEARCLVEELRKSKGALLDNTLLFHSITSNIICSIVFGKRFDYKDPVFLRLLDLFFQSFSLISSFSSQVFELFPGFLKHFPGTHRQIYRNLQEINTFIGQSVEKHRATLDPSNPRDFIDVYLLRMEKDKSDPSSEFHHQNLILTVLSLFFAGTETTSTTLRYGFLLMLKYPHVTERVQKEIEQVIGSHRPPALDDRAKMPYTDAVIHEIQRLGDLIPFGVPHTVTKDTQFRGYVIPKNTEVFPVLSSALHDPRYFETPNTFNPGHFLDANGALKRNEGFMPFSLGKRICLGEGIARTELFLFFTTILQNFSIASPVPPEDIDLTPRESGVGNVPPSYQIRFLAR
Briefly: Activity of rabbit CYP2B4 assessed as observed rate constant for enzyme-mediated compound formation treated with 1 uM ticlopidine by HPLC-MS analysis in presence of NADPH. The class given is ADME.

The nature of series [3]: Retention time of the compound by HPLC-MS analysis. The class given is physicochemical.
For series [4], the target named is T2, Cytochrome P450 2B4. The series can be described thus: Activity of rabbit CYP2B4 assessed as enzyme-mediated compound formation treated with 10 uM ticlopidine for 60 mins by HPLC-MS analysis in presence of NADPH. The following applies: 1 h. The class given is ADME.
Series [5] deals with T1, Cytochrome P450 2B6. The series can be described thus: Activity of human CYP2B6 assessed as observed rate constant for enzyme-mediated compound formation treated with 1 uM ticlopidine by HPLC-MS analysis in presence of NADPH. The class given is ADME.
Series [6] addresses T1, Cytochrome P450 2B6. Briefly: Activity of recombinant full-length CYP2B6 (unknown origin) expressed in baculovirus-infected insect cells assessed as enzyme-mediated compound formation treated with 10 uM ticlopidine for 60 mins by HPLC-MS analysis in presence of NADPH. The class given is ADME. As to conditions: 1 h.
The subject of the next series is Liver microsome. The series can be described thus: Drug level in human liver microsomes assessed as compound formation treated with 10 uM ticlopidine for 60 mins by HPLC-MS analysis in presence of NADPH. The format is ADME. As to conditions: 1 h. (Liver microsomes are vesicles of endoplasmic reticulum, rich in cytochrome P450 enzymes.)
Another series deals with T3, CYP2B6 (Homo sapiens, UniProt P20813).
T3 sequence (P20813 whole entry): T1 sequence (P20813 whole entry)
The series can be described thus: Inhibition of human CYP2B6 assessed as inactivation rate constant at 100 uM for 2 mins by HPLC-MS analysis in presence of NADPH. The class given is ADME.

The target in a further series is T4, CYP2B4 (Oryctolagus cuniculus, UniProt P00178).
T4 sequence (P00178 whole entry): T2 sequence (P00178 whole entry)
The series can be described thus: Inhibition of rabbit CYP2B4 assessed as inactivation rate constant at 100 uM for 2 mins by HPLC-MS analysis in presence of NADPH. The format is ADME.

Consider seven molecules from ChEMBL document CHEMBL3525941, “Comparison of in vitro metabolism of ticlopidine by human cytochrome P450 2B6 and rabbit cytochrome P450 2B4” (Drug Metab Dispos, 2011).

As for `OC1CN(Cc2ccccc2Cl)Cc2ccsc21` (stereo not given), the Compound recovery entry at Cytochrome P450 2B6 [1], at Cytochrome P450 2B4 [4], at Cytochrome P450 2B6 [6] and in the series on Liver microsome was “metabolite_detected” throughout. The kobs on Cytochrome P450 2B4 [2] was 0.49 min⁻¹; at Cytochrome P450 2B6 [5] it was 0.48 min⁻¹. The Retention_time in series [3] is recorded as 4.56 min.

Turning to `O=C1C=C2CN(Cc3ccccc3Cl)CCC2S1` (stereo not given), the Compound recovery entry on Cytochrome P450 2B6 [1], at Cytochrome P450 2B4 [4], on Cytochrome P450 2B6 [6] and in the series on Liver microsome was “metabolite_detected” in each case. Moreover, the figures for the kobs at Cytochrome P450 2B4 [2] and at Cytochrome P450 2B6 [5] were 0.48 min⁻¹ and 0.5 min⁻¹, respectively. In addition, the Retention_time in series [3] is on record as 4.9 min.

Regarding `Clc1ccccc1C[N+]1=Cc2ccsc2CC1`, the Compound recovery result at Cytochrome P450 2B6 [1], at Cytochrome P450 2B4 [4], on Cytochrome P450 2B6 [6] and with Liver microsome was “metabolite_detected” each time.

Turning to `Clc1ccccc1C[n+]1ccc2sccc2c1`, the Compound recovery entry at Cytochrome P450 2B6 [1], on Cytochrome P450 2B4 [4], on Cytochrome P450 2B6 [6] and in the series with Liver microsome was “metabolite_detected” each time. The kobs at Cytochrome P450 2B4 [2] was found to be 0.56 min⁻¹.

For `[O-][N+]1(Cc2ccccc2Cl)CCc2sccc2C1` (stereo not given), the Compound recovery entry at Cytochrome P450 2B6 [1], at Cytochrome P450 2B4 [4], at Cytochrome P450 2B6 [6] and in the series on Liver microsome was “metabolite_detected” each time. The values for the kobs at Cytochrome P450 2B4 [2] and at Cytochrome P450 2B6 [5] were 0.66 min⁻¹ and 0.61 min⁻¹, respectively. Besides, the Retention_time in series [3] was 8 min.

Broadly, the kinact is the maximal first-order rate at which the target is inactivated. Turning to `CCOc1ccc2c(C(F)(F)F)cc(=O)oc2c1`, the kinact at 2 min, 100 µM is 0.00167 s⁻¹ on CYP2B6 and 0.000333 s⁻¹ at CYP2B4.

As to `CC(NC(C)(C)C)C(=O)c1cccc(Cl)c1` (stereo not given) [BUPROPION], the kinact at 2 min, 100 µM at CYP2B6 was 0.00533 s⁻¹; on CYP2B4 it was 0.00133 s⁻¹. The Retention_time in series [3] was determined as 9.7 min.
